Test results taken from BindingDB's records for doi:10.1016/0960-894X(96)00211-9 (1996).
Counter-ions that a name gives are not always drawn.

assay: Compound was tested for inhibitory activity against Endothelin-converting enzyme isolated from guinea pig lung membrane.

SMILES	IC50 [µM]
CC(C)CC(CP(O)(O)=C(Cc1ccc2ccccc2c1)NC(=O)OCc1ccccc1)C(=O)N[C@@H](Cc1c[nH]c2ccccc12)C(=O)O (stereo partly drawn) [(S)-2-{2-[(1-Benzyloxycarbonylamino-2-naphthalen-2-yl-ethyl)-hydroxy-phosphinoylmethyl]-4-methyl-pentanoylamino}-3-(1H-indol-3-yl)-propionic acid; Disodium salt]	3.3

assay: Inhibition of Endothelin-converting enzyme of guinea pig lung membrane

SMILES	IC50 [µM]
CC(C)CC(NC(=O)[C@H](CCCCNC(=O)OCc1ccccc1)NS(C)(=O)=O)=P(O)(O)CC(CC(C)C)C(=O)N[C@@H](Cc1c[nH]c2ccccc12)C(=O)O (stereo partly drawn) [(S)-2-(2-{[1-((S)-6-Benzyloxycarbonylamino-2-methanesulfonylamino-hexanoylamino)-3-methyl-butyl]-hydroxy-phosphinoylmethyl}-4-methyl-pentanoylamino)-3-(1H-indol-3-yl)-propionic acid; Disodium salt]	0.04
CC(C)CC(CP(O)(O)=C(Cc1ccc2ccccc2c1)NC(=O)[C@H](CCCCN)NS(C)(=O)=O)C(=O)N[C@@H](Cc1c[nH]c2ccccc12)C(=O)O (stereo partly drawn) [(S)-2-(2-{[1-((S)-6-Amino-2-methanesulfonylamino-hexanoylamino)-2-naphthalen-2-yl-ethyl]-hydroxy-phosphinoylmethyl}-4-methyl-pentanoylamino)-3-(1H-indol-3-yl)-propionic acid; Disodium salt]	0.065
CC(C)C(CP(O)(O)=C(Cc1ccccc1)NC(=O)[C@H](CCCCNC(=O)OCc1ccccc1)NS(C)(=O)=O)C(=O)N[C@@H](Cc1c[nH]c2ccccc12)C(=O)O (stereo partly drawn) [(S)-2-(2-{[1-((S)-6-Benzyloxycarbonylamino-2-methanesulfonylamino-hexanoylamino)-2-phenyl-ethyl]-hydroxy-phosphinoylmethyl}-3-methyl-butyrylamino)-3-(1H-indol-3-yl)-propionic acid; Disodium salt]	0.39
CC(C)C(CP(O)(O)=C(Cc1ccc2ccccc2c1)NC(=O)[C@H](CCCCNC(=O)OCc1ccccc1)NS(C)(=O)=O)C(=O)N[C@@H](Cc1c[nH]c2ccccc12)C(=O)O (stereo partly drawn) [(S)-2-(2-{[1-((S)-6-Benzyloxycarbonylamino-2-methanesulfonylamino-hexanoylamino)-2-naphthalen-2-yl-ethyl]-hydroxy-phosphinoylmethyl}-3-methyl-butyrylamino)-3-(1H-indol-3-yl)-propionic acid; Disodium salt]	0.8
CC(C)CC(CP(O)(O)=C(Cc1ccccc1)NC(=O)[C@H](CC(C)C)NC(=O)OCc1ccccc1)C(=O)N[C@@H](Cc1c[nH]c2ccccc12)C(=O)O (stereo partly drawn) [(S)-2-(2-{[1-((S)-2-Benzyloxycarbonylamino-4-methyl-pentanoylamino)-2-phenyl-ethyl]-hydroxy-phosphinoylmethyl}-4-methyl-pentanoylamino)-3-(1H-indol-3-yl)-propionic acid; Disodium salt]	0.16
